Reference: US5244891A, “Injectable compositions of cefepime dihydrochloride hydrate” (priority 1992, dated 1993)
Entries after “also recorded” stand apart in the source; their conditions may differ. Counter-ions that a name gives are not always drawn. Like-named read-outs stand apart in the source and are kept apart here. Blank lines part the entries; values can stand above or below the compound they belong to.

What was measured:
[1] = Elevated temperature storage stability in dry form (potency loss or gain by HPLC); assay type: physicochemical; details: for degraded at 24 h: 1 day
Description: Elevated temperature stabilities were determined by storing the preparations in dry containers at temperatures and for time periods as denoted below and potency losses or gains were determined by HPLC. A % potency gain is indicated by a plus sign in front of a figure. A less than 10% potency loss over a 2 to 4 week period at 45-56 deg. C. is usually indicative of less than 10% potency loss over a 2-3 year period at room temperature.

[2] = Solubility in water; assay type: physicochemical; details: for solubility in water (in words): for typical injectable compositions
[3] = system: various organisms; details: Aburaki et al. U.S. Pat. No. 4,406,899; listed as zwitterion form; cited from earlier work
[4] = dry powder, 45 deg. C. and above, even one week; 10080 min; cited from earlier work
[5] = Formation of insoluble particles on storage; assay type: physicochemical; details: storage at elevated temperatures
Source text: The dihydrochloride dihydrate described in Example XIII can be easily dried to give the same dihydrochloride monohydrate described in Examples XI and XII. […] Accordingly, the monohydrate carrying up to about 1% by weight of adventitious water is the preferred form (total water content ca. 2.5-4.1%).

[6] = Weight loss on drying of the hydrate; assay type: physicochemical; details: 57° C., 0.001 mm Hg over P2 O5, 5 days; or 45° C., 10 mm Hg, 2 days
Source text: The foregoing procedures of Examples XI and XII routinely produce monohydrate having a water content in the range of 2.46% to 3.70% with an average value of 3.31%. The value calculated from the stoichiometric formula is 3.15%.

[7] = 45 Deg. C., 1 week, dry container, + = potency gain, 10080 min
[8] = 45 Deg. C., 4 weeks, dry container, + = potency gain, 40320 min
[9] = 56 Deg. C., 1 week, dry container, + = potency gain, 10080 min
[10] = 56 Deg. C., 2 weeks, dry container, + = potency gain, 20160 min
[11] = dry solid, 45 Deg. C., 2 weeks, dry container, + = potency gain, read-out: PERCENT LOSS (potency)
[12] = dry solid, 100 Deg. C., dry container, + = potency gain, read-out: PERCENT LOSS (potency)
[13] = 45 Deg. C., 2 weeks, dry container, + = potency gain, 20160 min
[14] = 45 Deg. C., 6 weeks, dry container, + = potency gain, 60480 min
[15] = listed as di-nitric acid addition salt
[16] = listed as sulfuric acid addition salt, sulfate salt

Compound: CO/N=C(\C(=O)NC1C(=O)N2C(C(=O)[O-])=C(C[N+]3(C)CCCC3)CSC12)c1csc(N)n1 (stereo not drawn) [(H3 PO4)2 Salt, crystalline diphosphate salt of 7-[α-(2-aminothiazol-4-yl)-α-(Z)-methoxyiminoacetamido]-3-[(1-methyl-1-pyrrolidinio)methyl]-3-cephem-4-carboxylate]
PERCENT LOSS (potency) [1, 7]: 0%
PERCENT LOSS (potency) [1, 8]: 1.0%
PERCENT LOSS (potency) [1, 9]: 2.7%
PERCENT LOSS (potency) [1, 10]: 5.0%
degraded at 336 h [1, 11]: 3%
solubility in water ([2]; listed as di-orthophosphoric acid addition salt): greater than 200 mg/ml

Compound: CO/N=C(\C(=O)NC1C(=O)N2C(C(=O)[O-])=C(C[N+]3(C)CCCC3)CS[C@H]12)c1csc(N)n1 (stereo partly drawn) [H2 SO4 Salt, 7-[α-(2-aminothiazol-4-yl)-α-(Z)-methoxyiminoacetamido]-3-[(1-methyl-1-pyrrolidinio)methyl]-3-cephem-4-carboxylate sulfate salt]
PERCENT LOSS (potency) ([1]; 45 Deg. C., 1 week, dry container, + = potency gain, 10080 min, sulfate salt, 10080 min): 2.4 to +5%
PERCENT LOSS (potency) ([1]; 45 Deg. C., 2 weeks, dry container, + = potency gain, 20160 min, sulfate salt, 20160 min): 3%
PERCENT LOSS (potency) ([1]; 45 Deg. C., 4 weeks, dry container, + = potency gain, 40320 min, sulfate salt, 40320 min): +5%
PERCENT LOSS (potency) ([1]; 45 Deg. C., 6 weeks, dry container, + = potency gain, 60480 min, sulfate salt, 60480 min): 1.4%
PERCENT LOSS (potency) ([1]; 56 Deg. C., 1 week, dry container, + = potency gain, 10080 min, sulfate salt, 10080 min): 5 to +6%
PERCENT LOSS (potency) ([1]; 56 Deg. C., 2 weeks, dry container, + = potency gain, 20160 min, sulfate salt, 20160 min): +3%
PERCENT LOSS (potency) ([1]; 56 Deg. C., 4 weeks, dry container, + = potency gain, 40320 min, sulfate salt, 40320 min): 0 to +6%
degraded at 730 h ([1]; dry solid, 45-56 deg. C., one month): < 10%
solubility compared to the zwitterion form [2]: limited solubility
solubility in water (in words) [2, 16]: reduced solubilities which are insufficient for typical injectable compositions; also recorded: not sufficiently soluble to form compositions of normal concentration for administration
solubility in water ([2]; listed as crystalline sulfuric acid addition salt, sulfate salt): 25 mg/mL
solubility in water [2, 16]: about 25 mg/ml

Compound: CO/N=C(\C(=O)NC1C(=O)N2C(C(=O)[O-])=C(C[N+]3(C)CCCC3)CS[C@H]12)c1csc(N)n1 (stereo partly drawn) [Zwitterion, 7-[α-(2-aminothiazol-4-yl)-α-(Z)-methoxyiminoacetamido]-3-[(1-methyl-1-pyrrolidinio)methyl]-3-cephem-4-carboxylate, reference compound]
spectrum of activity [3]: broader spectrum activity than ceftazidime and cefotaxime; also recorded: broad spectrum utility against various organisms
loss of activity on storage [4]: ≥ 30%
degraded at 168 h ([1]; dry solid, 45 Deg. C., 1 week, dry container, + = potency gain, read-out: PERCENT LOSS (potency)): 37%
degraded at 336 h [1, 11]: 51%
degraded at 672 h ([1]; dry solid, 45 Deg. C., 4 weeks, dry container, + = potency gain, read-out: PERCENT LOSS (potency)): 71%
degraded at 168 h ([1]; dry solid, 56 Deg. C., 1 week, dry container, + = potency gain, read-out: PERCENT LOSS (potency)): 57%
degraded at 24 h [1, 12]: 100%

Compound: CO/N=C(\C(=O)NC1C(=O)N2C(C(=O)[O-])=C(C[N+]3(C)CCCC3)CSC12)c1csc(N)n1 (stereo not drawn) [dihydrate, dihydrate of 7-[α-(2-aminothiazol-4-yl)-α-(Z)-methoxyiminoacetamido]-3-[(1-methyl-1-pyrrolidinio)methyl]-3-cephem-4-carboxylate dihydrochloride]
formation of insoluble particles [5]: formation of trace amounts of insoluble particles was observed

Compound: CO/N=C(\C(=O)NC1C(=O)N2C(C(=O)[O-])=C(C[N+]3(C)CCCC3)CSC12)c1csc(N)n1 (stereo not drawn) [monohydrate, crystalline dihydrochloride monohydrate of 7-[α-(2-aminothiazol-4-yl)-α-(Z)-methoxyiminoacetamido]-3-[(1-methyl-1-pyrrolidinio)methyl]-3-cephem-4-carboxylate]
loss in weight on drying [6]: no loss in weight
storage stability at elevated temperatures (chemical and biological potency) [1]: similar
degraded at 504 h ([1]; dry solid, 56° C., 3 weeks): 0.6%
remaining at 504 h ([1]; dry solid, 56° C., 3 weeks, total water content ca. 2.5-4.1%, read-out: retention of potency): ≥ 96%

Continued, in another order:

PERCENT LOSS (potency) [1, 7]: 0%
PERCENT LOSS (potency) [1, 8]: 7.4%
PERCENT LOSS (potency) [1, 9]: 0%
degraded at 672 h ([1]; dry solid, 56° C., 4 weeks, read-out: potency loss on storage): 7.2%
degraded at 24 h [1, 12]: 12.4%
solubility in water ([2]; listed as di-hydrochloric acid addition salt): greater than 200 mg/ml
Compound: CO/N=C(\C(=O)NC1C(=O)N2C(C(=O)[O-])=C(C[N+]3(C)CCCC3)CSC12)c1csc(N)n1 (centres unmarked) [(HCl)2 Salt]

PERCENT LOSS (potency) [1, 7]: 8.8%
PERCENT LOSS (potency) [1, 13]: 3.4%
PERCENT LOSS (potency) [1, 8]: 0.68%
PERCENT LOSS (potency) [1, 14]: 10.3%
PERCENT LOSS (potency) [1, 9]: 3.7%
PERCENT LOSS (potency) [1, 10]: 2.4%
solubility in water [2, 15]: about 60 mg/ml
Compound: CO/N=C(\C(=O)NC1C(=O)N2C(C(=O)[O-])=C(C[N+]3(C)CCCC3)CSC12)c1csc(N)n1 (centres unmarked) [(HNO3)2 Salt]
solubility in water (in words) [2, 15]: reduced solubilities which are insufficient for typical injectable compositions; also recorded: not sufficiently soluble to form compositions of normal concentration for administration

PERCENT LOSS (potency) [1, 7]: 4.8%
PERCENT LOSS (potency) [1, 13]: 2.3%
PERCENT LOSS (potency) [1, 8]: 6.0%
PERCENT LOSS (potency) [1, 14]: 6.4%
PERCENT LOSS (potency) [1, 9]: 6.4%
solubility in water ([2]; listed as mono-hydrochloric acid addition salt): greater than 200 mg/ml
Compound: CO/N=C(\C(=O)NC1C(=O)N2C(C(=O)[O-])=C(C[N+]3(C)CCCC3)CSC12)c1csc(N)n1 (centres unmarked) [HCl Salt]

Stability, % Loss ([1]; 1 month, 37° C., 43200 min): 2.5%
Stability, % Loss ([1]; 1 week, 45° C., 10080 min): 0%
Stability, % Loss ([1]; 4 weeks, 56° C., 40320 min): 0%
Stability, % Loss ([1]; 3 days, 70° C.): 0%
degraded at 168 h ([1]; dry solid, 1 week, 56° C., read-out: Stability, % Loss): 1%
degraded at 336 h ([1]; dry solid, 2 weeks, 45° C., read-out: Stability, % Loss): 1.4%
degraded at 336 h ([1]; dry solid, 2 weeks, 56° C., read-out: Stability, % Loss): 1.4%
degraded at 672 h ([1]; dry solid, 4 weeks, 45° C., read-out: Stability, % Loss): 0.7%
degraded at 1344 h ([1]; dry solid, 8 weeks, 45° C.): 1.6%
degraded at 24 h ([1]; dry solid, 100° C., read-out: Stability, % Loss): 10.9%
degraded at 168 h ([1]; dry solid, 7 days, 70° C., read-out: Stability, % Loss): 1.9%
solubility in water ([2]; listed as sesqui-orthophosphoric acid addition salt): greater than 200 mg/ml
Compound: CO/N=C(\C(=O)NC1C(=O)N2C(C(=O)[O-])=C(C[N+]3(C)CCCC3)CSC12)c1csc(N)n1 (stereo not drawn) [Sesquiphosphate Salt, crystalline sesquiphosphate salt of 7-[α-(2-aminothiazol-4-yl)-α-(Z)-methoxyiminoacetamido]-3-[(1-methyl-1-pyrrolidinio)methyl]-3-cephem-4-carboxylate]
